Data reported in patent US20070281909A1, “Creatine phosphate prodrugs, compositions and uses thereof” (XenoPort, Inc., priority 2006, published 2007).
Like-named read-outs stand apart in the source and are kept apart here.

How the values were obtained:
[1] = system: HEK cells expressing SMVT; test: Effect of treatment on the creatine kinase system (intracellular creatine phosphate, ATP, creatine); assay type: cell-based, human; conditions: 100 μM, relative to buffer
[2] = cited from earlier work
HEK293 cells = test: Restoration of cellular energy homeostasis following sodium azide treatment; assay type: cell-based, human; conditions: azide 20 minutes, then compound or control media 20 minutes; FIG. 12
H9C2 cells = assay type: cell-based, rat
[3] = cited from earlier work; remark: listed apart in the source
[4] = healthy volunteers, oral creatine administration; cited from earlier work
[5] = animals fed a diet containing up to 1%; cited from earlier work

| Structure (SMILES) | Percent Increase in Intracellular Concentrations, ATP ([1]; After 1 Hour) [%] | Percent Increase in Intracellular Concentrations, Creatine ([1]; After 1 Hour) [%] | Percent Increase in Intracellular Concentrations, Creatine Phosphate ([1]; After 1 Hour) [%] | Percent Increase in Intracellular Concentrations, ATP ([1]; After 3 Hours) [%] | Percent Increase in Intracellular Concentrations, Creatine ([1]; After 3 Hours) [%] | Percent Increase in Intracellular Concentrations, Creatine Phosphate ([1]; After 3 Hours) [%] | Adverse side effects ([2]; patients with cardiac diseases, intravenous injection up to 8 gm/day) | Adverse side effects ([2]; athletes and body builders, 2-3 gm/day) | Reversal of azide-induced ATP depletion (HEK293 cells) | Protection against 3-NP toxicity (ATP luminescence) (H9C2 cells) | Duration of increases in tissue creatine phosphate levels ([3]; following oral creatine supplementation) [days] | Overall increase in creatine phosphate levels by creatine supplementation ([3]; supplementation typically takes weeks) [%] | Increase of cerebral creatine phosphate [4] | Adverse effects [5] |
| --- | --- | --- | --- | --- | --- | --- | --- | --- | --- | --- | --- | --- | --- | --- |
| CN(CC(=O)O)C(=N)NP(=O)(O)O [Creatine Phosphate, creatine phosphate] | 27 | −6 | 15 | 10 | 0 | 5 | without adverse side effects |  |  |  |  |  |  |  |
| CN(CC(=O)O)C(=N)N.O [creatine monohydrate] |  |  |  |  |  |  |  | without adverse side effects |  |  |  |  |  |  |
| CN(CC(=O)O)C(=N)N [Creatine, creatine] | 5 | 8 | 26 | −5 | 40 | 30 |  |  | not protective | not | > 14 | < 50 | about 10% |  |
| NC1=NCCN1CC(=O)O [cyclocreatine] |  |  |  |  |  |  |  |  |  |  |  |  |  | do not exhibit adverse effects |
